Results from patent US8853246B2 (Dow AgroSciences LLC, priority 2009, dated 2014).
Read-outs that look alike come from different tables or passages of the source.

Legend:
[1] = system: Sweetpotato Whitefly-Crawler (Bemisia Tabaci); experiment: Insecticidal test for sweetpotato whitefly-crawler in foliar spray assay (col. BEMITA); assay type: in vivo; conditions: for pest or weed control at 200 ppm: Bemisia tabaci, read-out: BEMITA 200 ppm (Corrected % Control, rating)
Procedure: (§1) The compounds were tested against cotton aphid, green peach aphid, and sweet potato whitefly using procedures described in the following examples and reported in Table 2.
(§2) In each case of Table 2, the rating scale is as follows at 200 ppm.
Insecticidal Test for Sweetpotato Whitefly-Crawler (Bemisia Tabaci) in Foliar Spray Assay
Cotton plants grown in 3-inch pots, with 1 small (3-5 cm) true leaf, were used as test substrate. The plants were placed in a room with whitefly adults. Adults were allowed to deposit eggs for 2-3 days. After a 2-3 day egg-laying period, plants were taken from the adult whitefly room. Adults were blown off leaves using a hand-held Devilbiss sprayer (23 psi). Plants with egg infestation (100-300 eggs per plant) were placed in a holding room for 5-6 days at 82° F. and 50% RH for egg hatch and crawler stage to develop. Four cotton plants were used for each treatment. Compounds (2 mg) were dissolved in 1 mL of acetone solvent, forming stock solutions of 2000 ppm. The stock solutions were diluted 10× with 0.025% Tween 20 in H2O to obtain a test solution at 200 ppm. A hand-held Devilbiss sprayer was used for spraying a solution to both sides of cotton leaf until runoff. Reference plants (solvent check) were sprayed with the diluent only. Treated plants were held in a holding room for 8-9 days at approximately 82° F. and 50% RH prior to grading. Evaluation was conducted by counting the number of live nymphs per plant under a microscope. Insecticidal activity was measured by using Abbott's correction formula and presented in Table 2 (see col. “BEMITA”): Corrected % Control=100*(X−Y)/X • where X=No. of live nymphs on solvent check plants • Y=No. of live nymphs on treated plants Pesticidally Acceptable Acid Addition Salts, Salt Derivatives, Solvates, Ester Derivatives, Polymorphs, Isotopes and Radionuclides

[2] = system: Green Peach Aphid (Myzus Persicae); experiment: Insecticidal test for green peach aphid in foliar spray assay (col. MYZUPE); assay type: in vivo; conditions: for pest or weed control at 200 ppm: Myzus persicae, 72 h, read-out: MYZUPE 200 ppm (Corrected % Control, rating)
Procedure: as §1, §2
Insecticidal Test for Green Peach Aphid (Myzus Persicae) in Foliar Spray Assay
Cabbage seedlings grown in 3-inch pots, with 2-3 small (3-5 cm) true leaves, were used as test substrate. The seedlings were infested with 20-50 green peach aphids (wingless adult and nymph) one day prior to chemical application. Four pots with individual seedlings were used for each treatment. Compounds (2 mg) were dissolved in 2 mL of acetone/methanol (1:1) solvent, forming stock solutions of 1000 ppm. The stock solutions were diluted 5× with 0.025% Tween 20 in H2O to obtain a test solution at 200 ppm. A hand-held Devilbiss sprayer was used for spraying a solution to both sides of cabbage leaves until runoff. Reference plants (solvent check) were sprayed with the diluent only. Treated plants were held in a holding room for three days at approximately 25° C. and 40% relative humidity (RH) prior to grading. Evaluation was conducted by counting the number of live aphids per plant under a microscope. Corrected % Control=100*(X−Y)/X • where X=No. of live aphids on solvent check plants • Y=No. of live aphids on treated plants

SMILES | pest or weed control at 200 ppm ([1]; sweetpotato whitefly-crawler) [%] | pest or weed control at 200 ppm ([2]; green peach aphid) [%] | pest or weed control at 200 ppm ([1]; Abbott's correction formula) [%] | pest or weed control at 200 ppm ([2]; Abbott's correction formula) [%] | other results
CCC(C)NC(=O)N(C)c1cnc(-c2cncc(F)c2)s1 (stereo not drawn) [Compound 73, 3-sec-Butyl-1-[2-(5-fluoropyridin-3-yl)-thiazol-5-yl]-1-methyl-urea] | 80 to 100 | 80 to 100 | – | – | –
Cc1nc(-c2cccnc2)sc1NC(=O)c1ccoc1 [Compound 399] | 80 to 100 | 80 to 100 | – | – | –
CSCCCC(=O)N(C)c1sc(-c2cccnc2)nc1C [Compound 368] | 80 to 100 | 80 to 100 | – | – | –
Cc1nc(-c2cccnc2)sc1N(C)C(=O)CN(C)C(=O)C(C)n1cccn1 (stereo not drawn) [Compound 430] | – | – | < 80 | 80 to 100 | –
CCCC(C)(C)OC(=O)Nc1sc(-c2cccnc2)nc1C [Compound 192] | 80 to 100 | 80 to 100 | – | – | –
C/C=C/CN(C(=O)OC(C)(C)C)c1sc(-c2cccnc2)nc1C [Compound 463] | – | – | < 80 | < 80 | –
C[C@H](C(=O)N(C)c1sc(-c2cccnc2)nc1Cl)N(C)C(=O)OCc1ccccc1 [Compound 440] | – | – | < 80 | < 80 | –
CN(C(=O)C(F)(F)F)c1sc(-c2cccnc2)nc1Cl [Compound 6, N-(4-Chloro-2-pyridin-3-yl-thiazol-5-yl)-2,2,2-trifluoro-N-methyl-acetamide] | < 80 | < 80 | – | – | –
Cc1nc(-c2cccnc2)sc1N(C)C(=O)[C@H](Cc1ccccc1)NC(=O)OC(C)(C)C [Compound 280] | < 80 | < 80 | – | – | –
Cc1nc(-c2cccnc2)sc1N(C)C(=O)CN(C)S(=O)(=O)/C=C/c1ccccc1 [Compound 436] | – | – | < 80 | < 80 | –
CCC(CS(C)(=O)=O)C(=O)N(CC)c1sc(-c2cccnc2)nc1Cl (stereo not drawn) [Compound 560] | – | – | 80 to 100 | 80 to 100 | –
CCN(C(=O)C(C)C(C)[S+](C)[O-])c1sc(-c2cccnc2)nc1Cl (stereo not drawn) [Compound 565] | – | – | 80 to 100 | 80 to 100 | –
CCN(C(C)=O)c1sc(-c2cccnc2)nc1Cl [Compound 533] | – | – | 80 to 100 | 80 to 100 | –
Cc1nc(-c2ccc(F)nc2)sc1N(C(=O)C(C)C)C(=O)C(C)C [Compound 162] | 80 to 100 | 80 to 100 | – | – | –
CCN(C(=O)c1ccc(CSC)o1)c1sc(-c2cccnc2)nc1Cl [Compound 545] | – | – | < 80 | 80 to 100 | –
CSC(C)(C)CC(=O)N(C)c1sc(-c2cncc(F)c2)nc1Cl [Compound 443] | – | – | 80 to 100 | 80 to 100 | –
CCN(C(=O)Cc1ccsc1)c1sc(-c2cccnc2)nc1Cl [Compound 528] | – | – | 80 to 100 | < 80 | –
CSCC(C)(C)C(=O)Nc1sc(-c2cncc(F)c2)nc1C [Compound 139] | 80 to 100 | 80 to 100 | – | – | –
Cc1nc(-c2cccnc2)sc1N(CC1CC1)C(=O)OC(C)(C)C [Compound 462] | – | – | < 80 | 80 to 100 | –
CC(=O)OC(C)C(=O)N(C)c1sc(-c2cccnc2)nc1Cl (stereo not drawn) [Compound 336] | – | – | – | – | BEMITA 200 ppm (Corrected % Control, rating) ([1]; sweetpotato whitefly-crawler): A (80-100); MYZUPE 200 ppm (Corrected % Control, rating) ([2]; green peach aphid): A (80-100)
CSCC(C)C(=O)N(C)c1sc(-c2cccnc2)nc1C(C)C (stereo not drawn) [Compound 60] | < 80 | < 80 | – | – | –
CSC(C)C(C)C(=O)N(C)c1sc(-c2cncc(F)c2)nc1C (stereo not drawn) [Compound 215] | 80 to 100 | 80 to 100 | – | – | –
Cc1nc(-c2cncnc2)sc1NC(=O)OC(C)(C)C [Compound 8, (4-Methyl-2-pyrimidin-5-yl-thiazol-5-yl)-carbamic acid tert-butyl ester] | – | 80 to 100 | – | – | –
CC(=O)c1ccc(C(=O)Nc2sc(-c3cccnc3)nc2C)s1 [Compound 347] | < 80 | < 80 | – | – | –

SMILES | pest or weed control at 200 ppm ([1]; sweetpotato whitefly-crawler) [%] | pest or weed control at 200 ppm ([2]; green peach aphid) [%] | pest or weed control at 200 ppm ([1]; Abbott's correction formula) [%] | pest or weed control at 200 ppm ([2]; Abbott's correction formula) [%] | other results
Cc1nc(-c2cccnc2)sc1N(C)C(=O)CN(C)S(C)(=O)=O [Compound 433] | – | – | 80 to 100 | 80 to 100 | –
CC(C(=O)N(C)c1sc(-c2cccnc2)nc1Cl)C(C)[S+](C)[O-] (stereo not drawn) [Compound 522] | – | – | < 80 | 80 to 100 | –
CC[C@H](NC(=O)OC(C)(C)C)C(=O)N(C)c1sc(-c2cccnc2)nc1C [Compound 312] | 80 to 100 | 80 to 100 | – | – | –
CCN(C(=O)CCSC)c1sc(-c2cccnc2)nc1-c1ccccc1 [Compound 61] | < 80 | < 80 | – | – | –
Cc1nc(-c2cccnc2)sc1N(C)C(=O)c1cscn1 [Compound 365] | < 80 | 80 to 100 | – | – | –
Cc1nc(-c2cccnc2)sc1N(C)C(=O)C1CCSC1 (stereo not drawn) [Compound 206] | 80 to 100 | 80 to 100 | – | – | –
CN(C(=O)CC[S+](C)[O-])c1sc(-c2cccnc2)nc1C(F)(F)F (stereo not drawn) [Compound 88] | 80 to 100 | 80 to 100 | – | – | –
COc1cncc(-c2nc(C)c(NC(=O)C(C)CSC)s2)c1 (stereo not drawn) [Compound 137] | < 80 | < 80 | – | – | –
CN(C(=O)C(F)(F)F)c1cnc(-c2cncc(F)c2)s1 [Compound 1, 2,2,2-trifluoro-N-[2-(5-fluoropyridin-3-yl)-thiazol-5-yl]-N-methyl-acetamide] | 80 to 100 | < 80 | – | – | –
CSCCC(=O)N(C)c1sc(-c2cccnc2)nc1C(C)C [Compound 59] | 80 to 100 | < 80 | – | – | –
CCN(C(=O)C(C)CSC)c1sc(-c2cccnc2)nc1-c1ccccc1 (stereo not drawn) [Compound 62] | < 80 | < 80 | – | – | –
CSCC(C)C(=O)N(C(=O)C(C)C)c1sc(-c2cncc(F)c2)nc1C (stereo not drawn) [Compound 200] | 80 to 100 | 80 to 100 | – | – | –
CSC(C)C(=O)N(C(=O)OC(C)(C)C)c1sc(-c2cccnc2)nc1C (stereo not drawn) [Compound 357] | 80 to 100 | 80 to 100 | – | – | –
CCN(C(=O)c1ccoc1)c1sc(-c2cccnc2)nc1Cl [Compound 573] | – | – | < 80 | < 80 | –
CSCCC(=O)N(C)c1sc(-c2cccnc2)nc1Cl [Compound 66, N-(4-chloro-2-pyridin-3-yl-thiazol-5-yl)-N-methyl-3-methylsulfanyl-propionamide] | 80 to 100 | 80 to 100 | – | – | –
CCN(C(=O)C(C)C)c1sc(-c2cncc(F)c2)nc1F [Compound 424] | 80 to 100 | 80 to 100 | – | – | –
COCN(C(=O)C(C)CSC)c1sc(-c2cccnc2)nc1C (stereo not drawn) [Compound 196] | 80 to 100 | 80 to 100 | – | – | –
Cc1nc(-c2cncc(F)c2)sc1N(C)C(=O)C1CCCN(C(=O)CC(F)(F)F)C1 (stereo not drawn) [Compound 584] | – | – | < 80 | < 80 | –
Cc1nc(-c2cccnc2)sc1N(C)C(=O)OC1(C)CCCCC1 [Compound 493] | – | – | 80 to 100 | 80 to 100 | –
Cc1nc(-c2cccnc2)sc1N(C)C(=O)[C@@H](COCc1ccccc1)NC(=O)OC(C)(C)C [Compound 310] | – | < 80 | – | – | –
Cc1nc(-c2cccnc2)sc1N(C)C(=O)C(NC(=O)OC(C)(C)C)C(C)C (stereo not drawn) [Compound 311] | – | 80 to 100 | – | – | –
CSCC(C)C(=O)N(C)c1sc(-c2cnc(Cl)c(F)c2)nc1Cl (stereo not drawn) [Compound 473] | – | – | < 80 | – | –
Cc1nc(-c2cccnc2)sc1N(C)C(=O)C1CCN1C(=O)OC(C)(C)C (stereo not drawn) [Compound 338] | – | – | – | – | BEMITA 200 ppm (Corrected % Control, rating) ([1]; sweetpotato whitefly-crawler): A (80-100)
Cc1nc(-c2cncnc2)sc1N(C)C(=O)OC(C)(C)C [Compound 11, Methyl-(4-methyl-2-pyrimidin-5-yl-thiazol-5-yl)-carbamic acid tert-butyl ester] | – | < 80 | – | – | –
